# “And” between values parts separate entries of the source, which are not always exact repeats. Equal entries are not always repeated. “Also recorded” adds a separate entry of the source. Where two headings read alike, the source gives them in different places.
# How the values were obtained:
# [1] = Stability to basic conditions (NaHCO3); format: physicochemical; conditions: 23° C.
# [2] = tested on: L1210 (ATCC CCL-219) mouse lymphocytic leukemia cells; experiment: Cell growth inhibition assay (phosphatase readout); format: cell-based
# Description: Compounds were tested for their cell growth inhibition of L1210 (ATCC CCL-219) mouse lymphocytic leukemia cells. A population of cells (>1×10^6 cells/mL as determined with a hemocytometer) was diluted with an appropriate amount of Dulbecco-modified Eagle Medium (DMEM, Gibco) containing 10% fetal bovine serum (FBS, Gibco) to a final concentration of 30,000 cells/mL. To each well of a 96-well plate (Corning® Costar®), 100 μL of the cell-media solution was added with a multichannel pipette. The cultures were incubated at 37° C. in an atmosphere of 5% CO2 and 95% humidified air for 24 hours. The test compounds were added to the plate as follows: test substances were diluted in DMSO to a concentration of 1 mM and 10-fold serial dilutions were performed on a separate 96-well plate. Fresh culture medium (100 μL) was added to each well of cells to constitute 200 μL of medium per well followed by 2 μL of each test agent. Compounds were tested in duplicate (≧2 times) at six concentrations between 0-100 nM or 0-1000 nM. Following addition, cultures were incubated for an additional 72 hours.
# A phosphatase assay was used to establish the IC50 values as follows: the media in each cell was removed and 100 μL of phosphatase solution (100 mg phosphatase substrate in 30 mL 0.1 M NaOAc, pH 5.5, 0.1% Triton® X-100 buffer) was added to each well. The plates were incubated at 37° C. for 5 minutes. After the given incubation time, 50 μL of 0.1 N NaOH was added to each well and the absorption at 405 nm was determined using a 96 well plate reader. As the absorption is directly proportional to the number of living cells, the IC50 values were calculated and the reported values represent of the average of ≧4 determinations (SD±10%).
# physchem = conditions: buffer
# w794 DNA = experiment: DNA alkylation studies, cell-free (thermally induced strand cleavage, PAGE autoradiography); format: biochemical; conditions: for DNA alkylation: no deliberate activation
# Description: DNA-agent incubation at 23° C. for 2 hours (h), removal of unbound agent by EtOH precipitation, and 30 minute thermolysis (100° C.) followed by 8% denaturing PAGE and autoradiography. Lane 1, control DNA; lanes 2-5, Sanger G, C, A, and T sequencing reactions; lane 6, Compound (+)-4 (1×10^−5 M); lane 7, Compound (+)-7 (1×10^−5 M); lanes 8-9, Compound (+)-7 (1×10^−5 M) incubated at 37° C. with 1 M L-glutathione for 12 hours and 24 hours.
# DNA-agent incubation at 23° C. for 2 hours (h), removal of unbound agent by EtOH precipitation, and 30 minutes thermolysis (100° C.) followed by 8% denaturing PAGE and autoradiography.
# Lane 1, control DNA; lanes 2-5, Sanger G, C, A, and T sequencing reactions; lanes 6-8, Compound (+)-4 (1×10^−4 to 1×10^−6 M); lanes 9-11, Compound (+)-6 (1×10^−2 to 1×10^−4 M).
# Lane 1, control DNA; lanes 2-5, Sanger G, C, A, and T sequencing reactions; lanes 6-11, Compound (+)-4 (1×10^−4M, t=2, 4, 6, 8, 24, 48 hours); lanes 12-15, Compound (+)-6 (1×10^−2M, t=2, 4, 6, 8 hours).
# Lane 1, control DNA; lanes 2-5, Sanger G, C, A, and T sequencing reactions; lane 6, Compound (+)-4 (1×10^−4 M); lanes 7-9, Compound (±)-19 (1×10^−3 to 1×10^−5 M).
# See Boger et al., Tetrahedron 1991, 47:2661-2682 for full details of the DNA alkylation assay. The DNA alkylation reactions were conducted at […] with 5′-^32P-end-labeled w794 DNA, which contains a single major alkylation site for the natural products.
# [3] = tested on: L1210 murine leukemia cells; experiment: In vivo antitumor activity, L1210 implanted ip in B6D2F1 mice; design: species or system mouse
# Description: [Wolfe et al., J. Med. Chem. 2012, 55:5878-5886.] Therefore, the preliminary evaluation of the in vivo antitumor activity of the cyclic N—O pro-drugs was assessed with Compound (+)-6 and was conducted alongside seco-CBI-indole2 (Compound 4) in an antitumor model consisting of L1210 murine leukemia cells implanted ip in B6D2F1 mice traditionally used to initially compare new duocarmycin derivatives (Table 3, below).
# B6D2F1 mice were injected intraperitoneally (i.p.) with syngeneic L1210 cells (1×10^6) on day 0. Ten mice were randomly assigned to control vehicle or treatment groups for Compounds (+)-4 and (+)-6 at doses of 60, 100, 250, and 500 μg/kg/inj for Compounds (+)-4 or 60, 200, 500, 1000, and 2500 μg/kg/inj for Compounds (+)-6. Compounds (+)-4 and (+)-6 were formulated in 100% DMSO. Both compounds were injected i.p. on days 1, 5, and 9. Following injection of tumor cells, animals were monitored daily and weighed two times per week. Percent survival (T/C) for treated and control groups were determined by dividing the total survival days for each treatment group by the total survival days for the control group and multiplying×100. All animal studies were carried out in the animal facilities of The University of Kansas Medical Center with strict adherence to the guidelines of the IACUC Animal Welfare Committee of KUMC (IACUC approval #2009-1837).
# [4] = tested on: L1210 murine leukemia cells; conditions: literature dose range; cited from earlier work
# [5] = Mus musculus, L1210, 72 h, read-out: IC50 L1210 natural, natural enantiomer, 72 hours
# [6] = Mus musculus, L1210, 72 h, read-out: IC50 L1210 unnatural, unnatural enantiomer, 72 hours
# [7] = 500 μg/kg i.p. on days 1, 5 and 9
# [8] = 1000 μg/kg i.p. on days 1, 5 and 9
# [9] = 2500 μg/kg i.p. on days 1, 5 and 9
# [10] = 60 μg/kg i.p. on days 1, 5 and 9
# [11] = 100 μg/kg i.p. on days 1, 5 and 9
# [12] = 250 μg/kg i.p. on days 1, 5 and 9
smiles,measurement,setting,value
"CC(C)(C)OC(=O)N1CC(CCl)c2c1cc1c3c(cccc23)C(=O)NO1 (stereo not drawn) [Compound 15, tert-Butyl 10-(Chloromethyl)-4-oxo-9,10-dihydro-4H-pyrrolo[3′,2′:5,6]naphtho[1,8-de][1,2]oxazine-8(5H)-carboxylate]",half-life,"[1]; NaHCO3 in MeOH, read-out: t1/2 with NaHCO3 (converted)",70 h
same,stability to NaHCO3,[1]; NaHCO3 in THF/H2O,stable
same,IC50,[2]; [5],650 nM
same,IC50,[2]; [6],> 1000 nM
same,half-life,physchem,2 h
"COC(=O)c1cc2c([nH]1)C(=O)C=C1N(C(=O)c3cc4cc(OC)c(OC)c(OC)c4[nH]3)C[C@H]3CC123 (stereo partly drawn) [Compound 1, Duocarmycin SA, reference compound]",IC50,[2]; [5],0.01 nM
same,IC50,[2]; [6],0.1 nM
"CN1Oc2cc3c(c4cccc(c24)C1=O)[C@H](CCl)CN3C(=O)c1cc2cc(NC(=O)c3cc4ccccc4[nH]3)ccc2[nH]1 [Compound (+)-6, N-(2-(10-(Chloromethyl)-5-methyl-4-oxo-5,8,9,10-tetrahydro-4H-pyrrolo[3′,2′:5,6]naphtho[1,8-de][1,2]oxazine-8-carbonyl)-1H-indol-5-yl)-1H-indole-2-carboxamide]",DNA alkylation,w794 DNA,incapable of alkylating DNA
same,difference in potency between Compound (+)-6 and Compound (+)-7,[2]; L1210,3 fold
same,IC50,[2]; [5],0.99 nM
same,IC50,"[2]; read-out: IC50 L1210 natural, natural enantiomer, 72 hours",~1 nM
same,T/C = Treated/Control (MSP) × 100,"[3]; 200 μg/kg i.p. on days 1, 5 and 9",386
same,Surviving Mice (live animals after 366 days),[3]; [7],4/10
same,T/C = Treated/Control (MSP) × 100,[3]; [7],> 1142
same,Surviving Mice (live animals after 366 days),[3]; [8],4/10
same,T/C = Treated/Control (MSP) × 100,[3]; [8],> 1130
same,Surviving Mice (live animals after 366 days),[3]; [9],6/10
same,T/C = Treated/Control (MSP) × 100,[3]; [9],> 1500
same,delayed toxicity in long term survivors,[3]; 366 days (1 year),no evidence of a delayed toxicity
same,tolerance at the injection sites,"[3]; i.p. administration, versus free drug",tolerated at the injection sites of the animals much better than the free drug
same,dosing permitted over that of the free drug,[3]; versus free drug,≥ 40 fold
same,in vivo potency relative to the free drug,[3]; versus free drug,≤ 3 fold
"O=C(Nc1ccc2[nH]c(C(=O)N3C[C@@H](CCl)c4c3cc(O)c3ccccc43)cc2c1)c1cc2ccccc2[nH]1 [Compound 4, seco-CBI-indole2, reference compound]",IC50,"[2]; Mus musculus, L1210, natural enantiomer, 72 hours, read-out: IC50 L1210 natural",0.03 nM
same,IC50,"[2]; Mus musculus, L1210, unnatural enantiomer, 72 hours, read-out: IC50 L1210 unnatural",0.9 nM
same,MSP (Mean Survival Period),[3]; [10],>50 days
same,Surviving Mice (live animals after 366 days),[3]; [10],1/10
same,T/C = Treated/Control (MSP) × 100,[3]; [10],>284
same,MSP (Mean Survival Period),[3]; [11],6.4 days
same,Surviving Mice (live animals after 366 days),[3]; [11],0/10
same,T/C = Treated/Control (MSP) × 100,[3]; [11],36
same,MSP (Mean Survival Period),[3]; [12],3.7 days
same,Surviving Mice (live animals after 366 days),[3]; [12],0/10
same,T/C = Treated/Control (MSP) × 100,[3]; [12],21
same,MSP (Mean Survival Period),[3]; [7],3.0 days
same,Surviving Mice (live animals after 366 days),[3]; [7],0/10
same,T/C = Treated/Control (MSP) × 100,[3]; [7],17
"COc1c(O)c2c(c3cc(C(=O)N4CCc5c4c(O)c(OC)c4[nH]c(C(=O)N6C[C@H]7CC78C6=CC(=O)c6[nH]cc(C)c68)cc54)[nH]c13)CCN2C(N)=O (stereo partly drawn) [Compound 2, CC-1065, reference compound]",IC50,[2]; [5],0.02 nM
same,IC50,[2]; [6],0.02 nM
"O=C(Nc1ccc2[nH]c(C(=O)N3C[C@@H](CCl)c4c3cc3c5c(cccc45)C(=O)NO3)cc2c1)c1cc2ccccc2[nH]1 [Compound (+)-7, N-(2-(10-(Chloromethyl)-4-oxo-5,8,9,10-tetrahydro-4H-pyrrolo[3′,2′:5,6]naphtho[1,8-de][1,2]oxazine-8-carbonyl)-1H-indol-5-yl)-1H-indole-2-carboxamide]",DNA alkylation after thiol activation,w794 DNA; incubated with 1 M L-glutathione at 37° C.,results in DNA alkylation; also recorded: slow DNA alkylation reaction
same,DNA alkylation,w794 DNA,No DNA alkylation; also recorded: failed to alkylate DNA
"O=C(Nc1ccc2[nH]c(C(=O)N3C[C@@H](CCl)c4c3cc(O)c3ccccc43)cc2c1)c1cc2ccccc2[nH]1 [Compound (+)-4, seco-CBI-indole2, reference compound]",Surviving Mice (live animals after 366 days),[3]; [10],1/10
same,T/C = Treated/Control (MSP) × 100,[3]; [10],> 284 and 284
same,toxicity in tumor-bearing mice,[3]; all higher doses (100-500 μg/kg),proved toxic leading to premature death of the animals due to drug toxicity
same,toxicity in tumor-bearing mice,[3]; dosing at 60 to 500 μg/kg,premature death
same,therapeutic window (dose range),[4],0.03 to 0.1 mg/kg
"CN1Oc2cc3c(c4cccc(c24)C1=O)C(CCl)CN3C(=O)OC(C)(C)C (stereo not drawn) [Compound 12, tert-Butyl 10-(Chloromethyl)-5-methyl-4-oxo-9,10-dihydro-4H-pyrrolo[3′,2′:5,6]naphtho[1,8-de][1,2]oxazine-8(5H)-carboxylate]",time unreactive toward NaHCO3,"[1]; NaHCO3 in THF, MeOH, DMF/H2O",more than 5 days
same,IC50,[2]; [5],850 nM
same,IC50,[2]; [6],> 1000 nM
same,half-life,physchem,24 h
"CNC(=O)c1cccc2c3c(cc(O)c12)N(C(=O)c1cc2cc(NC(=O)c4cc5ccccc5[nH]4)ccc2[nH]1)CC3CCl (racemic) [Compound 19, 3-(5-(1H-Indole-2-carboxamido)-1H-indole-2-carbonyl)-1-(chloromethyl)-5-hydroxy-N-methyl-1,2-dihydrobenzo-[e]indole-6-carboxamide]",DNA alkylation,w794 DNA,alkylate DNA in a manner analogous to Compound (+)-4
same,times less potent than seco-(+)-CBI-indole2,"[2]; L1210, racemic mixture",2.5 times
same,IC50,"[2]; Mus musculus, L1210, 72 h, read-out: IC50 L1210, tested as a racemic mixture, 72 hours",0.073 nM
"CC(C)(C)OC(=O)N1CC2CC23C1=CC(=O)c1ccccc13 (single isomer, unassigned; (+)) [(+)-N—Boc-CBI, reference compound]",IC50,"[2]; natural enantiomer, 72 hours, read-out: IC50 L1210 natural",80 nM
same,IC50,"[2]; unnatural enantiomer, 72 hours, read-out: IC50 L1210 unnatural",900 nM

# — US9586974B2, “Cyclic N-acyl O-amino phenol CBI derivative” (THE SCRIPPS RESEARCH LINSTITUTE, priority 2013, dated 2017)
